The subject of test [1] is Aβ1-42. As to the kind of experiment: Amyloid-beta (Aβ) disaggregation test by thioflavin-T assay. To be noted: 50 µM Aβ1-42 aggregated 24 hours at 37 °C, then compound 0-500 µM for 48 hours; concentration disaggregating 50 % compared to the control. The format is biochemical. The procedure: (§1) Each compound was dissolved in DMSO to a concentration of 10 mM. Subsequently, the compound was diluted with 6 % DMSO (in DW) and used.
(§2) Specifically, amyloid-beta and tau solutions were prepared by dissolving Aβ1-42 or Tau-RD3 (Tau repeat domain 3) monomer in DMSO to a concentration of 10 mM. Thereafter, each solution was diluted with DW to a concentration of 100 µM and stored on ice. Meanwhile, thioflavin-T was dissolved in 50 mM glycine buffer (pH 8.5) to a concentration of 5 mM. Thereafter, the resulting solution was diluted with 50 mM glycine buffer (pH 8.5) to a concentration of 5 µM and stored in a dark room while light was blocked.
(§3) Each of the amyloid-beta and tau solutions prepared according to Experimental Example 1.1 was added to a 1.5 mL microcentrifuge tube to a concentration of 50 µM or 35 µM, and then a reaction was allowed to occur therebetween at 37 °C for 24 hours. Each of the 1.5 mL microcentrifuge tubes in which amyloid-beta aggregation and tau aggregation had been completed was treated with each compound at a concentrated of 500 µM to 0 µM through serial dilution, and then a further reaction was allowed to occur therebetween at 37 °C for 48 hours. 25 µL of the reaction solution in which the reaction had been completed was added to each well of a 96-well plate for fluorescence analysis, and 75µL of the previously prepared thioflavin-T solution was added to each well. After a reaction was allowed to occur at room temperature in the dark for 5 minutes, fluorescence values were measured at excitation 450 nm and emission 485 nm by using a multi-mode microplate reader.
(§4) The fluorescence value of a group (control) treated with amyloid-beta or tau alone, followed by aggregation for 72 hours was converted into a percentage value and expressed as 100, and amyloid-beta and tau aggregates, in which aggregation had been completed upon reaction for 24 hours, were treated with each compound at each concentration and a further reaction was allowed to occur therebetween for 48 hours, and then fluorescence values thereof were measured and converted into relative values. […]

Test [2] has as its system Tau-RD3 (Tau repeat domain 3). In words: Tau disaggregation test by thioflavin-T assay. To be noted: 35 µM Tau-RD3 aggregated 24 hours at 37 °C, then compound 0-500 µM for 48 hours; concentration disaggregating 50 % compared to the control. The format is biochemical. The protocol:
as §1, §2, §3, §4

Usually EC50 stands for the concentration needed to bring the measured effect to its halfway point. In the case of “2-(4-methoxyphenyl)-3-(5-methylthiazol-4-yl)-6-(2-phenoxyethoxy)-1H-inden-1-one [Compound 21]”, the EC50 in test [1] amounted to 5.2 µM; in test [2] it was 173 µM.
On the same counts, the results for “6-(2-(4-methoxyphenoxy)ethoxy)-3-(5-methylthiazol-4-yl)-2-(4-(trifluoromethyl)phenyl)-1H-inden-1-one [Compound 32]” are 161 µM and greater than 500 µM.
The like results for “6-(3-phenylpropoxy)-3-(1H-pyrazol-3-yl)-2-(pyridin-3-yl)-1H-inden-1-one [Compound 7]” were, in that order, 194 µM and 133 µM.

Values taken from patent publication EP4549436A1, “NOVEL INDENONE DERIVATIVES AND USES THEREOF” (Amyloid Solution Inc., priority 2022, dated 2024).
